In brackets after ≈: the same amount, converted by molar mass. Read-outs that look alike come from different tables or passages of the source.
Assays:
Assay type in all cases: cell-based
Bacillus subtilis (Bs) = assay: Minimum inhibitory concentration (MIC) in nutrient agar, Bacillus subtilis
Method in brief: (§1)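 Test compound, as a 1% acetone–water solution, was mixed into molten nutrient agar (pH 6.8 or pH 8.2) at 48° C to final levels of 500 down to 1.0 ppm. Plates were dried 24 h, spot-inoculated with 10^8 CFU/mL suspensions of 24-h cultures, and incubated 48 h at 30° C. MIC was the lowest level preventing growth.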

[1] = tested on: Enterobacter aerogenes (Ea); assay: Minimum inhibitory concentration (MIC) in nutrient agar, Enterobacter aerogenes; conditions: Klebsiella aerogenes
Method in brief: as §1

Escherichia coli (Ec) = assay: Minimum inhibitory concentration (MIC) in nutrient agar, Escherichia coli
Method in brief: as §1

[2] = tested on: Klebsiella pneumoniae (Kp); assay: Minimum inhibitory concentration (MIC) in nutrient agar, Klebsiella pneumoniae
Method in brief: as §1

Proteus vulgaris (Pv) = assay: Minimum inhibitory concentration (MIC) in nutrient agar, Proteus vulgaris
Method in brief: as §1

[3] = tested on: Pseudomonas aeruginosa (PRD-10); assay: Minimum inhibitory concentration (MIC) in nutrient agar, Pseudomonas aeruginosa PRD-10
Method in brief: as §1

[4] = tested on: Pseudomonas aeruginosa (Pa); assay: Minimum inhibitory concentration (MIC) in nutrient agar, Pseudomonas aeruginosa; conditions: 30° C., 48 hours, read-out: Minimum Inhibitory Concentration, Pa
Method in brief: as §1

[5] = tested on: Salmonella choleraesuis (Se); assay: Minimum inhibitory concentration (MIC) in nutrient agar, Salmonella choleraesuis; conditions: Salmonella enterica
Method in brief: as §1

[6] = tested on: Staphylococcus aureus (Sa); assay: Minimum inhibitory concentration (MIC) in nutrient agar, Staphylococcus aureus
Method in brief: as §1

Aspergillus niger (An) = assay: Minimum inhibitory concentration (MIC) in malt yeast agar, Aspergillus niger
Method in brief: (§2)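 Agar dilution: test compound from a 1% acetone/water solution was mixed into malt yeast agar (pH 5.5) at 48 °C to final […], 25, 10, 5, 2.5, 1.0 and zero ppm. Plates dried 24 h, were replicator-inoculated with 1:9 saline-diluted suspensions of 7-day 30 °C cultures, and were read after 72 h (fungi) or 48 h (yeast) at 30 °C.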

Candida albicans (Ca) = assay: Minimum inhibitory concentration (MIC) in malt yeast agar, Candida albicans
Method in brief: (§3)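 Growth is scored at 30 °C after 72 h for fungi and 48 h for yeast on malt yeast agar (pH 5.5) containing compound at final levels from 500 down to zero ppm. Organisms are grown 7 days at 30 °C, suspended in saline with octylphenoxy polyethoxy ethanol, and diluted 1:9 before replicator inoculation.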

[7] = tested on: Penicillium chrysogenum (Pc); assay: Minimum inhibitory concentration (MIC) in malt yeast agar, Penicillium chrysogenum
Method in brief: as §2

[8] = tested on: Saccharomyces cerevisiae (Sc); assay: Minimum inhibitory concentration (MIC) in malt yeast agar, Saccharomyces cerevisiae; conditions: pH 5.5, malt yeast agar, 30° C., 48 hours for yeast, read-out: Minimum Inhibitory Concentration, SC
Method in brief: as §3

Trichoderma viride (Tv) = assay: Minimum inhibitory concentration (MIC) in malt yeast agar, Trichoderma viride
Method in brief: as §2

[9] = tested on: Aureobasidium pullulan (Ap); assay: Minimum inhibitory concentration (MIC) in malt yeast agar, Aureobasidium pullulan
Method in brief: as §2

Fusarium oxysporum (Fo) = assay: Minimum inhibitory concentration (MIC) in malt yeast agar, Fusarium oxysporum
Method in brief: as §2

[10] = pH 6.8, nutrient agar, 30° C., 48 hours, read-out: Minimum Inhibitory Concentration, Bs
[11] = pH 8.2, nutrient agar, 30° C., 48 hours, read-out: Minimum Inhibitory Concentration, Bs
[12] = 48 h, pH 6.8, read-out: Minimum Inhibitory Concentration, Ea
[13] = 48 h, pH 8.2, read-out: Minimum Inhibitory Concentration, Ea
[14] = 48 h, pH 6.8, read-out: Minimum Inhibitory Concentration, Ec
[15] = pH 8.2, nutrient agar, 30° C., 48 hours, read-out: Minimum Inhibitory Concentration, Ec
[16] = 48 h, pH 8.2, read-out: Minimum Inhibitory Concentration, Kp
[17] = pH 6.8, nutrient agar, 30° C., 48 hours, read-out: Minimum Inhibitory Concentration, Kp
[18] = 48 h, pH 6.8, read-out: Minimum Inhibitory Concentration, Pv
[19] = 48 h, pH 8.2, read-out: Minimum Inhibitory Concentration, Pv
[20] = 48 h, pH 8.2, read-out: Minimum Inhibitory Concentration, PRD
[21] = pH 6.8, nutrient agar, 30° C., 48 hours, read-out: Minimum Inhibitory Concentration, PRD
[22] = 48 h, pH 6.8, read-out: Minimum Inhibitory Concentration, SC
[23] = 48 h, pH 8.2, read-out: Minimum Inhibitory Concentration, SC
[24] = 48 h, pH 8.2, read-out: Minimum Inhibitory Concentration, Sa
[25] = pH 6.8, nutrient agar, 30° C., 48 hours, read-out: Minimum Inhibitory Concentration, Sa
[26] = pH 5.5, malt yeast agar, 30° C., 72 hours for fungi, read-out: Minimum Inhibitory Concentration, An
[27] = pH 5.5, malt yeast agar, 30° C., 72 hours for fungi, read-out: Minimum Inhibitory Concentration, PC
[28] = pH 5.5, malt yeast agar, 30° C., 72 hours for fungi, read-out: Minimum Inhibitory Concentration, Tv
[29] = pH 5.5, malt yeast agar, 30° C., read-out: Minimum Inhibitory Concentration, Ap
[30] = pH 5.5, malt yeast agar, 30° C., 72 hours for fungi, read-out: Minimum Inhibitory Concentration, Fo
[31] = 48 h, pH 6.8, read-out: Minimum Inhibitory Concentration, Bs
[32] = 48 h, pH 8.2, read-out: Minimum Inhibitory Concentration, Bs
[33] = 48 h, pH 6.8, read-out: Minimum Inhibitory Concentration, PRD
[34] = 72 h, pH 5.5, read-out: Minimum Inhibitory Concentration, An
[35] = 48 h, pH 5.5, read-out: Minimum Inhibitory Concentration, Ca
[36] = 72 h, pH 5.5, read-out: Minimum Inhibitory Concentration, PC
[37] = 72 h, pH 5.5, read-out: Minimum Inhibitory Concentration, Tv
[38] = 72 h, pH 5.5, read-out: Minimum Inhibitory Concentration, Fo

Compound	MIC (Bacillus subtilis (Bs); [10]) [µg/mL]	MIC (Bacillus subtilis (Bs); [11]) [µg/mL]	MIC [1, 12] [µg/mL]	MIC [1, 13] [µg/mL]	MIC (Escherichia coli (Ec); [14]) [µg/mL]	MIC (Escherichia coli (Ec); [15]) [µg/mL]	MIC [2, 16] [µg/mL]	MIC [2, 17] [µg/mL]	MIC (Proteus vulgaris (Pv); [18]) [µg/mL]	MIC (Proteus vulgaris (Pv); [19]) [µg/mL]	MIC [3, 20] [µg/mL]	MIC ([4]; pH 8.2, nutrient agar) [µg/mL]	MIC [5, 22] [µg/mL]	MIC [5, 23] [µg/mL]	MIC [6, 24] [µg/mL]	MIC [6, 25] [µg/mL]	MIC [8] [µg/mL]	MIC [9, 29] [µg/mL]	MIC ([4]; pH 6.8, nutrient agar) [µg/mL]	MIC (Candida albicans (Ca); [35]) [µg/mL]	also measured
N#CSCSc1nsnc1-c1ccc(F)cc1 [Example XXI, 4-(4-Fluorophenyl)-3-thiocyanatomethylthio-1,2,5-thiadiazole]	9 (≈ 31.8 µM)	100 (≈ 353 µM)	500 (≈ 1760 µM)	> 500	500 (≈ 1760 µM)	250 (≈ 882 µM)	> 500	500 (≈ 1760 µM)	500 (≈ 1760 µM)	> 500	> 500	> 500	500 (≈ 1760 µM)	> 500	> 500	500 (≈ 1760 µM)	9 (≈ 31.8 µM)	9 (≈ 31.8 µM)			MIC [3, 21]: 250 µg/mL (≈ 882 µM); MIC (Aspergillus niger (An); [26]): 9 µg/mL (≈ 31.8 µM); MIC (Candida albicans (Ca); pH 5.5, malt yeast agar, 30° C., 48 hours for yeast, read-out: Minimum Inhibitory Concentration, Ca): 9 µg/mL (≈ 31.8 µM); MIC [7, 27]: 9 µg/mL (≈ 31.8 µM); MIC (Trichoderma viride (Tv); [28]): 25 µg/mL (≈ 88.2 µM); MIC (Fusarium oxysporum (Fo); [30]): 9 µg/mL (≈ 31.8 µM)
COc1ccc(-c2nsnc2SCSC#N)cc1 [Example XXIII, 4-(4-Methoxyphenyl)-3-thiocyanatomethylthio-1,2,5-thiadiazole]			> 500	500 (≈ 1690 µM)	> 500		> 500	> 500	> 500	> 500	> 500	> 500	> 500	> 500	> 500	> 500	9 (≈ 30.5 µM)	9 (≈ 30.5 µM)	> 500	250 (≈ 846 µM)	MIC (Bacillus subtilis (Bs); [31]): 500 µg/mL (≈ 1690 µM); MIC (Bacillus subtilis (Bs); [32]): 250 µg/mL (≈ 846 µM); MIC (Escherichia coli (Ec); 48 h, pH 8.2, read-out: Minimum Inhibitory Concentration, Ec): > 500 µg/mL; MIC [3, 33]: > 500 µg/mL; MIC (Aspergillus niger (An); [34]): 25 µg/mL (≈ 84.6 µM); MIC [7, 36]: 50 µg/mL (≈ 169 µM); MIC (Trichoderma viride (Tv); [37]): 250 µg/mL (≈ 846 µM); MIC (Fusarium oxysporum (Fo); [38]): 100 µg/mL (≈ 339 µM)
N#CSCSc1nsnc1-c1cccs1 [Example XXX, 4-(2-Thiophene)-3-thiocyanatomethylthio-1,2,5-thiadiazole]			500 (≈ 1840 µM)	> 500	500 (≈ 1840 µM)	250 (≈ 921 µM)	> 500	500 (≈ 1840 µM)	500 (≈ 1840 µM)	> 500	> 500	> 500	500 (≈ 1840 µM)	> 500	> 500	500 (≈ 1840 µM)	9 (≈ 33.2 µM)	25 (≈ 92.1 µM)	500 (≈ 1840 µM)	100 (≈ 368 µM)	MIC (Bacillus subtilis (Bs); [31]): 500 µg/mL (≈ 1840 µM); MIC (Bacillus subtilis (Bs); [32]): 500 µg/mL (≈ 1840 µM); MIC [3, 33]: 500 µg/mL (≈ 1840 µM); MIC (Aspergillus niger (An); [34]): 50 µg/mL (≈ 184 µM); MIC [7, 27]: 9 µg/mL (≈ 33.2 µM); MIC (Trichoderma viride (Tv); [37]): 250 µg/mL (≈ 921 µM); MIC (Fusarium oxysporum (Fo); [38]): 100 µg/mL (≈ 368 µM)
N#CSc1nsnc1-c1ccc(F)cc1 [Example V, 4-(4-Fluorophenyl)-3-thiocyanato-1,2,5-thiadiazole]	< 10	50 (≈ 211 µM)		500 (≈ 2110 µM)	50 (≈ 211 µM)	250 (≈ 1050 µM)		100 (≈ 421 µM)				100 (≈ 421 µM)				25 (≈ 105 µM)	5 (≈ 21.1 µM)		100 (≈ 421 µM)	25 (≈ 105 µM)	MIC ([1]; pH 6.8, nutrient agar, 30° C., 48 hours, read-out: Minimum Inhibitory Concentration, Ea): 250 µg/mL (≈ 1050 µM); MIC ([2]; pH 8.2, nutrient agar, 30° C., 48 hours, read-out: Minimum Inhibitory Concentration, Kp): 100 µg/mL (≈ 421 µM); MIC (Proteus vulgaris (Pv); pH 6.8, nutrient agar, 30° C., 48 hours, read-out: Minimum Inhibitory Concentration, Pv): 25 µg/mL (≈ 105 µM); MIC (Proteus vulgaris (Pv); pH 8.2, nutrient agar, 30° C., 48 hours, read-out: Minimum Inhibitory Concentration, Pv): 100 µg/mL (≈ 421 µM); MIC [3, 21]: 250 µg/mL (≈ 1050 µM); MIC ([3]; pH 8.2, nutrient agar, 30° C., 48 hours, read-out: Minimum Inhibitory Concentration, PRD): 250 µg/mL (≈ 1050 µM); MIC ([5]; pH 6.8, nutrient agar, 30° C., 48 hours, read-out: Minimum Inhibitory Concentration, SC): 100 µg/mL (≈ 421 µM); MIC ([5]; pH 8.2, nutrient agar, 30° C., 48 hours, read-out: Minimum Inhibitory Concentration, SC): 250 µg/mL (≈ 1050 µM); MIC ([6]; pH 8.2, nutrient agar, 30° C., 48 hours, read-out: Minimum Inhibitory Concentration, Sa): 50 µg/mL (≈ 211 µM); MIC (Aspergillus niger (An); [26]): 5 µg/mL (≈ 21.1 µM); MIC [7, 36]: 2.5 µg/mL (≈ 10.5 µM); MIC (Trichoderma viride (Tv); [28]): 25 µg/mL (≈ 105 µM); MIC ([9]; pH 5.5, read-out: Minimum Inhibitory Concentration, Ap): 2.5 µg/mL (≈ 10.5 µM); MIC (Fusarium oxysporum (Fo); [30]): 10 µg/mL (≈ 42.1 µM)
